Experimental data: US8859558B2, “Pyrazinyl carboxamides as fungicides” (Dow AgroSciences, LLC., priority 2010, dated 2014)

How the values were obtained:
[1] = system: Mycosphaerella graminicola; anamorph: Septoria tritici (SEPTTR); assay: Fungicidal activity, leaf blotch of wheat (SEPTTR), greenhouse wheat plants; assay type: in vivo; conditions: wheat (variety Yuma)
Procedure: Leaf Blotch of Wheat (Mycosphaerella graminicola; anamorph: Septoria tritici; Bayer code […]): Wheat plants (variety Yuma) were grown from seed in a greenhouse in 50% mineral soil/50% soil-less Metro mix until the first leaf was fully emerged, with 7-10 seedlings per pot. These plants were inoculated with an aqueous spore suspension of […] either prior to or after fungicide treatments. After inoculation the plants were kept in 100% relative humidity (one day in a dark dew chamber followed by two to three days in a lighted dew chamber) to permit spores to germinate and infect the leaf. The plants were then transferred to a greenhouse for disease to develop. The following table presents the activity of typical compounds of the present disclosure when evaluated in these experiments. The effectiveness of the test compounds in controlling disease was determined by assessing the severity of disease on treated plants, then converting the severity to percent control based on the level of disease on untreated, inoculated plants. • In each case of Table II the rating scale is as follows: […]

[2] = system: Puccinia recondita f. sp. tritici (PUCCRT); assay: Fungicidal activity, wheat leaf rust (PUCCRT), greenhouse wheat plants; assay type: in vivo; conditions: One-Day Protectant, wheat (variety Yuma)
[3] = system: Cochliobolus sativus (COCHSA); assay: Fungicidal activity, spot blotch of barley (COCHSA), greenhouse barley plants; assay type: in vivo; conditions: One-Day Protectant, barley (variety Harrington)
Procedure: Spot Blotch of Barley (Cochliobolus sativus: anamorph Helmithosporium sativum; Bayer code COCHSA): Barley plants (variety Harrington) were grown from seed in a greenhouse in soil-less Metro mix until the first leaf was fully emerged, with 7-10 seedlings per pot. These plants were inoculated with an aqueous spore suspension of COCHSA prior to fungicide treatments. After inoculation the plants were kept in 100% relative humidity one day to permit spores to germinate and infect the leaf. The plants were then transferred to a greenhouse for disease to develop. The following table presents the activity of typical compounds of the present disclosure when evaluated in these experiments. The effectiveness of the test compounds in controlling disease was determined by assessing the severity of disease on treated plants, then converting the severity to percent control based on the level of disease on untreated, inoculated plants. • In each case of Table II the rating scale is as follows: […]

With `CC(C)C1C2CCC1c1c(NC(=O)c3nccnc3C(F)(F)F)cccc12` (centres unmarked) [Compound 9, 3-Trifluoromethyl-pyrazine-2-carboxylic acid (9-isopropyl-1,2,3,4-tetrahydro-1,4-methano-naphthalen-5-yl)-amide] the “SEPTTR 200 PPM 1DP (disease control rating)” value ([1]; One-Day Protectant) was “A (76-100)”, the “SEPTTR 200 PPM 3DC (disease control rating)” value ([1]; Three-Day Curative) was “B (51-75)” and the “PUCCRT 200 PPM 1DP (disease control rating)” value [2] was “A (76-100)”. The “COCHSA 200 PPM 1DP (disease control rating)” value [3] was “A (76-100)” and the melting point was 173 to 177 °C.
